The values below come from ChEMBL document CHEMBL5625174, “Are inhibitors of histone deacetylase 8 (HDAC8) effective in hematological cancers especially acute myeloid leukemia (AML) and acute lymphoblastic leukemia (ALL)?” (Eur J Med Chem, 2023).

Square brackets hold non-standard residues; d marks the D form. Peptide text beside a SMILES is read from it. * marks the point of attachment. Asu = N[C@@H](CCCCCC(=O)O)C(=O)O; β3hL = CC(C)C[C@H](N)CC(=O)O; NHOH = ON*

The target in assay [1] is T1, Histone deacetylase 8 (Homo sapiens, UniProt Q9BY41).
T1 sequence (Q9BY41 whole entry): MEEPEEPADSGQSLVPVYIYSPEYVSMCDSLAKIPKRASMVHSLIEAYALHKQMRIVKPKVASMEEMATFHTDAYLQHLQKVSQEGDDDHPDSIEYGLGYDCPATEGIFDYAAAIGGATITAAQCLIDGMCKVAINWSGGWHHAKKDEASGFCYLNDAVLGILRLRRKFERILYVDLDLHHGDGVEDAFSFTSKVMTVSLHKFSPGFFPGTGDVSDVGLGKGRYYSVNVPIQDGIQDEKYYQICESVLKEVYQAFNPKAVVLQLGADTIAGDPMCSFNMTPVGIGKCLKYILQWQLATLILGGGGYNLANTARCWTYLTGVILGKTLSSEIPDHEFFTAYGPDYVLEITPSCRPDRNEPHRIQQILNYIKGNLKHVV
Kind of assay: Inhibition of human recombinant HDAC8 using fluorogenic HDAC substrate class 2A preincubated for 30 mins followed by substrate addition and measured after 15 mins by fluorogenic assay.

Assay [2] has as its target T1, Histone deacetylase 8. Kind of assay: Inhibition of human recombinant HDAC8 using AMC-K(Ac)GL as substrate by fluorescence based assay.
The nature of assay [3]: Inhibition of HDAC6 (unknown origin) assessed as release of fluorogenic AMC pre-incubated for 15 mins followed by addition of trypsin and substrate measured after 60 mins microplate reader analysis. More on the design: species or system Homo sapiens.
Assay [4] concerns the target Histone deacetylase. Kind of assay: Inhibition of HDAC (unknown origin) using Fluoro-Substrate Peptide as substrate by fluorescence assay. The format is protein assay, Homo sapiens.
In assay [5] the test system is MOLT-4. Kind of assay: Cytotoxicity against human MOLT-4 cells assessed as reduction in cell viability. The format is functional, cell-based.
Assay [6] has as its target T1, Histone deacetylase 8. Kind of assay: Inhibition of HDAC8 (unknown origin) by fluorescence based assay.
The test system of assay [7] is U-937. Kind of assay: Cytotoxicity against human U-937 cells assessed as reduction in cell viability. The format is functional, cell-based.
Assay [8] relates to Jurkat E6.1. Briefly: Cytotoxicity against human Jurkat E6.1 cells assessed as reduction in cell viability. The format is functional, cell-based.
Assay [9] addresses Histone deacetylase 3 (Homo sapiens, UniProt O15379). Kind of assay: Inhibition of HDAC3 (unknown origin) assessed as release of fluorogenic AMC pre-incubated for 15 mins followed by addition of trypsin and substrate measured after 60 mins microplate reader analysis.
The target in assay [10] is Histone deacetylase 2 (Homo sapiens, UniProt Q92769). Briefly: Inhibition of HDAC2 (unknown origin) assessed as release of fluorogenic AMC pre-incubated for 15 mins followed by addition of trypsin and substrate measured after 60 mins microplate reader analysis.
Assay [11] has as its target Histone deacetylase 1 (Homo sapiens, UniProt Q13547). Kind of assay: Inhibition of HDAC1 (unknown origin) using Ac-Leu-Gly-Lys(Ac)-AMC as substrate pre-incubated for 30 mins followed by substrate addition and measured after 30 mins by fluorescence based analysis.
For assay [12], the target named is T2, Polyamine deacetylase HDAC10 (Homo sapiens, UniProt Q969S8).
T2 sequence (Q969S8 whole entry): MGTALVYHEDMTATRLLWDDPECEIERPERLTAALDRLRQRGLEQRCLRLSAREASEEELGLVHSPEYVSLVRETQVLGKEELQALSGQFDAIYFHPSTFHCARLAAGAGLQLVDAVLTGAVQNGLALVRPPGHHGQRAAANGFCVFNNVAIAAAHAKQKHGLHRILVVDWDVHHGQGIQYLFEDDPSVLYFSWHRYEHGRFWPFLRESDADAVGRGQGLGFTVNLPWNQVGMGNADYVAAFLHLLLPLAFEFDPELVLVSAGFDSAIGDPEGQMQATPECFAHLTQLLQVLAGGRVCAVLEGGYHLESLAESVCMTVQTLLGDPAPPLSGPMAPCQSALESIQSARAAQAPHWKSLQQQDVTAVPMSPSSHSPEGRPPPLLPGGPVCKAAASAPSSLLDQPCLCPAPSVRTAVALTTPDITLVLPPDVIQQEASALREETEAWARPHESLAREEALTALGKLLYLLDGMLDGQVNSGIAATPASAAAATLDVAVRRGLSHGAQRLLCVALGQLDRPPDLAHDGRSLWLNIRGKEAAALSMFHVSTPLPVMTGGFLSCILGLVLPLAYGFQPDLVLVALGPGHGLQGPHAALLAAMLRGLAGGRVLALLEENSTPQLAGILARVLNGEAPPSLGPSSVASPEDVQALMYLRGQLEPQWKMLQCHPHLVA
Briefly: Inhibition of HDAC10 (unknown origin) assessed as release of fluorogenic AMC pre-incubated for 15 mins followed by addition of trypsin and substrate measured after 60 mins microplate reader analysis.

The test system of assay [13] is Jurkat E6.1. Briefly: Cytotoxicity against human Jurkat E6.1 cells assessed as reduction in cell viability incubated for 72 hrs by MTT assay. The following applies: Jurkat E6.1, 72 h. The format is functional, cell-based. A general note: Tetrazolium assays rely on reduction of a dye to a coloured formazan, in cell work by metabolically active cells.
Assay [14] deals with T3, Histone deacetylase 8 (Homo sapiens) (UniProt Q9BY41).
T3 sequence (whole entry): T1 sequence (Q9BY41 whole entry)
Kind of assay: Inhibition of His-tagged recombinant HDAC8 (unknown origin) at 10 uM using Boc-Lys(triflouroacetyl)-AMC as fluorogenic substrate pre-incubated for 30 mins followed by substrate addition and measured after 30 mins by fluorescence based analysis relative to control. The following applies: time 60.0 min.

Chain of Histone deacetylase 2 (Q92769 whole entry): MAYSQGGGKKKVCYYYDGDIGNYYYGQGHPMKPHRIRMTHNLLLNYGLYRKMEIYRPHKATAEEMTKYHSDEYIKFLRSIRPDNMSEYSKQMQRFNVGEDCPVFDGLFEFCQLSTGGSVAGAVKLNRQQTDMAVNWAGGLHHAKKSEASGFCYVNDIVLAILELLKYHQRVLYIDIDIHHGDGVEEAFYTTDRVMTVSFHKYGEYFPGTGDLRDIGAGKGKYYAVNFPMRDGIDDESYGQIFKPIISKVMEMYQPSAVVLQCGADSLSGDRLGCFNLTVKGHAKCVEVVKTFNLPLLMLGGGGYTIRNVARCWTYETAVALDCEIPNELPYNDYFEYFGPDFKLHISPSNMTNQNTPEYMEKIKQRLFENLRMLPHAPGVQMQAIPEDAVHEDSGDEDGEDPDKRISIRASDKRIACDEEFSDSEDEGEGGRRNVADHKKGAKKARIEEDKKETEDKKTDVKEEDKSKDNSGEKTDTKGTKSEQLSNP
Chain of Histone deacetylase 3 (O15379 whole entry): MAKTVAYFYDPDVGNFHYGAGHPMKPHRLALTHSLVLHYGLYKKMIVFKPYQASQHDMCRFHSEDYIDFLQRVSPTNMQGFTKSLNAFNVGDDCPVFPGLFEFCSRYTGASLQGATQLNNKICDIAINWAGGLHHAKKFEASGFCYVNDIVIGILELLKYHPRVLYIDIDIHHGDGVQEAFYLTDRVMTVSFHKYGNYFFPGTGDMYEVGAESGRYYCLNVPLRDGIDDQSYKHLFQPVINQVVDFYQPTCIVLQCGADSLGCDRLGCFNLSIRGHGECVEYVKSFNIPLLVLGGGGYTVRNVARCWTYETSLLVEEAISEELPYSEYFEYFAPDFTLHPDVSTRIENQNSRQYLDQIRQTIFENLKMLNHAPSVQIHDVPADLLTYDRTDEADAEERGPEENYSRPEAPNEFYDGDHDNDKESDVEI
Chain of Histone deacetylase 1 (Q13547 whole entry): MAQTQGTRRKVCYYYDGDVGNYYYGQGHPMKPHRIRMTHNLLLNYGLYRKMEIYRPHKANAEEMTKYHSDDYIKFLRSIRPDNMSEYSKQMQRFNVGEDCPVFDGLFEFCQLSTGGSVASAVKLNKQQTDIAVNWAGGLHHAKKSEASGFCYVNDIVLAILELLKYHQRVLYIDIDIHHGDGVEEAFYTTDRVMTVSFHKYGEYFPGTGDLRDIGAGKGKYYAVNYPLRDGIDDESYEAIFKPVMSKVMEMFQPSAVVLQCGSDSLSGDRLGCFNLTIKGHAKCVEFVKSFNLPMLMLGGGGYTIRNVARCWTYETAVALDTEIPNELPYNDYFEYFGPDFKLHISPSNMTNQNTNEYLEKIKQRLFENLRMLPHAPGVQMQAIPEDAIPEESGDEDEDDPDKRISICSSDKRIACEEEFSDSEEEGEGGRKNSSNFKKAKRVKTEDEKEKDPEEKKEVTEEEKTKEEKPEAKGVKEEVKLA

As usually defined, the IC50 is the concentration that gives 50% inhibition. With `CSCC[C@@H]1NCC(=O)NC1=O`, in assay [1], the IC50 was found to be 0.0884 µM.

Turning to `CC(C)C[C@H]1CC(=O)N[C@@H](C)C(=O)N[C@@H](CCCCCC(=O)NO)C(=O)N[C@@H](Cc2c[nH]c3ccccc23)C(=O)N1` (cyclo([Asu](NHOH)W[β3hL]A)), the IC50 in assay [2] stood at 0.12 µM.

With `N[C@H](Cc1cccc(Cl)c1)C(=O)N1CCN(C(=O)c2cc(F)ccc2F)CC1`, the IC50 in assay [3] is > 30 µM.

Consider `O=C(O)CC[C@H](NC(=O)Cc1ccc(-c2ccccc2)cc1)C(=O)NCc1ccccc1`, for which the IC50 in [4] is > 10 µM; in [5] it was < 35 µM; in assay [6], ≤ 10 µM; in assay [7], < 35 µM; in assay [8], < 35 µM.

Turning to `O=C(O)CC[C@H](NC(=O)Cc1ccc(Cl)cc1Cl)C(=O)NCc1ccccc1`, the IC50 was > 10 µM in assay [4]; ≤ 35 µM in assay [5]; ≤ 10 µM in assay [6]; ≤ 35 µM in [7]; ≤ 35 µM in assay [8].

Regarding `O=C1CN[C@@H](Cc2cc3ccccc3[nH]2)C(=O)N1`, the IC50 in assay [1] was 0.0108 µM.

For the compound `O=C(O)CC[C@H](NC(=O)Cc1ccc(Br)cc1)C(=O)NCc1ccc(Cl)c(Cl)c1`, the IC50 in assay [4] is > 10 µM; in assay [5], < 35 µM; in assay [6], ≤ 10 µM; in assay [7], > 35 µM; in [8] it was < 35 µM.

Take `N[C@H](Cc1ccc(Cl)cc1Cl)C(=O)N1Cc2ccccc2C1`: the IC50 in assay [3] was > 30 µM.

Turning to `CSCC[C@H]1NCC(=O)NC1=O`, the IC50 in [1] stood at 0.0797 µM.

Take `COc1ccc(/C=C/C(=O)NO)c(-c2ccc(Br)cc2)c1`: the IC50 was 4.8 µM in [9]; > 20 µM in assay [10]; > 20 µM in [3]; 4.5 µM in assay [11]; > 20 µM in [12].

`CCCCCCNC(=O)[C@H](CCC(=O)NO)NC(=O)Cc1ccccc1`: the IC50 in [13] was < 50 µM.

What is called inhibition is the percentage by which the read-out fell short of the control. Turning to `CC(C)C[C@H](NC(=O)[C@@H](O)[C@H](N)Cc1ccccc1)C(=O)NCCCCCC(=O)Nc1ccc(NC(=O)CCCCCCC(=O)NO)cc1`, the inhibition in assay [14] came out at 90%.

With `COc1ccc(/C=C/C(=O)NO)c(-c2ccc(-c3ccccc3)cc2)c1`, the IC50 in assay [3] is > 20 µM.

For `O=C(O)CC[C@H](NC(=O)Cc1ccc(Br)cc1)C(=O)NCc1ccc(Cl)cc1`, the IC50 in assay [4] was > 10 µM; in [5] it was < 35 µM; in assay [6], ≤ 10 µM; in [7] it was > 35 µM; in [8] it was < 35 µM.

As to `CCCCCNC(=O)[C@H](CCC(=O)NO)NC(=O)Cc1ccc(Cl)cc1Cl`, the IC50 in [13] is < 50 µM.

Turning to `CCCCNC(=O)[C@H](CCC(=O)NO)NC(=O)Cc1ccc([N+](=O)[O-])cc1`, the IC50 in assay [13] was < 50 µM.

Take `CCCCCCNC(=O)[C@H](CCC(=O)NO)NC(=O)Cc1ccc(Br)cc1`: the IC50 in assay [13] was < 50 µM.

For the compound `COc1ccc(CNC(=O)[C@H](CCC(=O)O)NC(=O)Cc2ccc(Br)cc2)cc1`, the IC50 was > 10 µM in assay [4]; < 35 µM in assay [5]; ≤ 10 µM in assay [6]; > 35 µM in assay [7]; < 35 µM in assay [8].

Take `CCCCNC(=O)[C@H](CCC(=O)NO)NC(=O)Cc1ccc(Cl)cc1`: the IC50 in assay [13] was < 50 µM.

With `CCCCCCNC(=O)[C@H](CCC(=O)O)NC(=O)Cc1ccc(Cl)cc1Cl`, the IC50 in [4] was > 10 µM; in [5] it was ≤ 35 µM; in assay [6], ≤ 10 µM; in assay [7], ≤ 35 µM; in assay [8] it was ≤ 35 µM.

For `CCCCCNC(=O)[C@H](CCC(=O)NO)NC(=O)Cc1ccc(Br)cc1`, the IC50 in [13] was > 50 µM.

As to `CC(C)CNC(=O)[C@H](CCC(=O)NO)NC(=O)Cc1ccccc1F`, the IC50 in [13] was > 50 µM.
